Measured values taken from the NIST ThermoML archive (doi:10.1016/j.tca.2016.06.023).

Experiments:
[1] = xn = mol fraction of the nth substance listed; conditions: 81.5 kPa, Liquid, Vibrating tube method
[2] = refractive index (Na D-line) (dimensionless); xn = mol fraction of the nth substance listed; conditions: 81.5 kPa, Liquid, Standard Abbe refractometry

Brc1ccccc1 [bromobenzene] + Clc1ccccc1
Conditions | mass density, [1] [kg/m3] | refractive index, [2]
293.15 K, x2 = 0 | 1495.52 | 1.55981
293.15 K, x2 = 0.1004 | 1457.81 | 1.55614
293.15 K, x2 = 0.2188 | 1413.03 | 1.55183
293.15 K, x2 = 0.3025 | 1381.12 | 1.54881
293.15 K, x2 = 0.4005 | 1343.53 | 1.54531
293.15 K, x2 = 0.5003 | 1304.91 | 1.54178
293.15 K, x2 = 0.6014 | 1265.46 | 1.53824
293.15 K, x2 = 0.6985 | 1227.24 | 1.53488
293.15 K, x2 = 0.7976 | 1187.96 | 1.53149
293.15 K, x2 = 0.899 | 1147.37 | 1.52802
303.15 K, x2 = 0 | 1481.97 | 1.55442
303.15 K, x2 = 0.1004 | 1444.57 | 1.55075
303.15 K, x2 = 0.2188 | 1400.11 | 1.54645
303.15 K, x2 = 0.3025 | 1368.44 | 1.54341
303.15 K, x2 = 0.4004 | 1331.07 | 1.5399
303.15 K, x2 = 0.5002 | 1292.73 | 1.53635
303.15 K, x2 = 0.6014 | 1253.57 | 1.5328
303.15 K, x2 = 0.6985 | 1215.65 | 1.52943
303.15 K, x2 = 0.7975 | 1176.65 | 1.52602
303.15 K, x2 = 0.8989 | 1136.37 | 1.52252
313.15 K, x2 = 0 | 1468.41 | 1.5489
313.15 K, x2 = 0.1004 | 1431.29 | 1.54525
313.15 K, x2 = 0.2188 | 1387.2 | 1.54094
313.15 K, x2 = 0.3025 | 1355.72 | 1.53791
313.15 K, x2 = 0.4004 | 1318.65 | 1.53439
313.15 K, x2 = 0.5002 | 1280.55 | 1.53084
313.15 K, x2 = 0.6014 | 1241.67 | 1.52729
313.15 K, x2 = 0.6985 | 1204.01 | 1.52391
313.15 K, x2 = 0.7975 | 1165.32 | 1.52049
313.15 K, x2 = 0.8989 | 1125.28 | 1.51697
323.15 K, x2 = 0 | 1454.85 | 1.54319
323.15 K, x2 = 0.1004 | 1418.03 | 1.53956
323.15 K, x2 = 0.2188 | 1374.22 | 1.53528
323.15 K, x2 = 0.3025 | 1342.96 | 1.53225
323.15 K, x2 = 0.4004 | 1306.14 | 1.52874
323.15 K, x2 = 0.5002 | 1268.32 | 1.5252
323.15 K, x2 = 0.6014 | 1229.71 | 1.52165
323.15 K, x2 = 0.6985 | 1192.33 | 1.51827
323.15 K, x2 = 0.7975 | 1153.89 | 1.51484
323.15 K, x2 = 0.8989 | 1114.13 | 1.51133
333.15 K, x2 = 0 | 1441.22 | 1.53742
333.15 K, x2 = 0.1004 | 1404.71 | 1.53383
333.15 K, x2 = 0.2188 | 1361.19 | 1.52957
333.15 K, x2 = 0.3025 | 1330.15 | 1.52657
333.15 K, x2 = 0.4004 | 1293.58 | 1.52308
333.15 K, x2 = 0.5002 | 1256.04 | 1.51956
333.15 K, x2 = 0.6014 | 1217.71 | 1.51602
333.15 K, x2 = 0.6985 | 1180.59 | 1.51266
333.15 K, x2 = 0.7975 | 1142.42 | 1.50924
333.15 K, x2 = 0.8989 | 1102.93 | 1.50574

Brc1ccccc1 [bromobenzene] + O=[N+]([O-])c1ccccc1
Conditions | mass density, 293.15 K [kg/m3] | mass density, 303.15 K [kg/m3] | mass density, 313.15 K [kg/m3] | mass density, 323.15 K [kg/m3] | mass density, 333.15 K [kg/m3] | refractive index, 293.15 K | refractive index, 303.15 K | refractive index, 313.15 K | refractive index, 323.15 K | refractive index, 333.15 K
[1], x1 = 0.0998 | 1232.31 | 1221.95 | 1211.59 | 1201.25 | 1190.87 | – | – | – | – | –
[1], x1 = 0.2013 | 1262.07 | 1251.35 | 1240.6 | 1229.85 | 1219.06 | – | – | – | – | –
[1], x1 = 0.2985 | 1290.56 | 1279.49 | 1268.39 | 1257.29 | 1246.12 | – | – | – | – | –
[1], x1 = 0.3968 | 1319.31 | 1307.88 | 1296.44 | 1284.95 | 1273.45 | – | – | – | – | –
[1], x1 = 0.505 | 1350.9 | 1339.07 | 1327.25 | 1315.36 | 1303.45 | – | – | – | – | –
[1], x1 = 0.5974 | 1377.81 | 1365.65 | 1353.48 | 1341.27 | 1329.01 | – | – | – | – | –
[1], x1 = 0.6987 | 1407.3 | 1394.76 | 1382.18 | 1369.62 | 1357.01 | – | – | – | – | –
[1], x1 = 0.8018 | 1437.33 | 1424.41 | 1411.45 | 1398.53 | 1385.53 | – | – | – | – | –
[1], x1 = 0.8963 | 1464.97 | 1451.69 | 1438.42 | 1425.19 | 1411.84 | – | – | – | – | –
[1], x1 = 1 | 1495.52 | 1481.97 | 1468.41 | 1454.85 | 1441.22 | – | – | – | – | –
[2], x1 = 0.0998 | – | – | – | – | – | 1.55317 | 1.54834 | 1.54352 | 1.53852 | 1.53345
[2], x1 = 0.2013 | – | – | – | – | – | 1.55394 | 1.54905 | 1.54416 | 1.53909 | 1.534
[2], x1 = 0.2985 | – | – | – | – | – | 1.55468 | 1.54973 | 1.54477 | 1.53962 | 1.53452
[2], x1 = 0.3968 | – | – | – | – | – | 1.55542 | 1.55041 | 1.54538 | 1.54015 | 1.53503
[2], x1 = 0.505 | – | – | – | – | – | 1.55622 | 1.55115 | 1.54603 | 1.54072 | 1.53559
[2], x1 = 0.5974 | – | – | – | – | – | 1.5569 | 1.55177 | 1.54658 | 1.5412 | 1.53605
[2], x1 = 0.6987 | – | – | – | – | – | 1.55764 | 1.55245 | 1.54718 | 1.54171 | 1.53654
[2], x1 = 0.8018 | – | – | – | – | – | 1.55838 | 1.55313 | 1.54777 | 1.54223 | 1.53704
[2], x1 = 0.8963 | – | – | – | – | – | 1.55906 | 1.55375 | 1.54831 | 1.54269 | 1.53748
[2], x1 = 1 | – | – | – | – | – | 1.55981 | 1.55442 | 1.5489 | 1.54319 | 1.53742

Clc1ccccc1 [chlorobenzene] + O=[N+]([O-])c1ccccc1
Conditions | mass density, 293.15 K [kg/m3] | mass density, 303.15 K [kg/m3] | mass density, 313.15 K [kg/m3] | mass density, 323.15 K [kg/m3] | mass density, 333.15 K [kg/m3] | refractive index, 293.15 K | refractive index, 303.15 K | refractive index, 313.15 K | refractive index, 323.15 K | refractive index, 333.15 K
[1], x1 = 0.1792 | 1186.15 | 1176.1 | 1166.03 | 1155.95 | 1145.83 | – | – | – | – | –
[1], x1 = 0.2018 | 1184.02 | 1173.95 | 1163.86 | 1153.76 | 1143.62 | – | – | – | – | –
[1], x1 = 0.2994 | 1174.79 | 1164.64 | 1154.47 | 1144.27 | 1134.02 | – | – | – | – | –
[1], x1 = 0.3967 | 1165.55 | 1155.32 | 1145.05 | 1134.75 | 1124.4 | – | – | – | – | –
[1], x1 = 0.491 | 1156.55 | 1146.24 | 1135.88 | 1125.49 | 1115.04 | – | – | – | – | –
[1], x1 = 0.5425 | 1151.59 | 1141.23 | 1130.83 | 1120.39 | 1109.89 | – | – | – | – | –
[1], x1 = 0.6479 | 1141.41 | 1130.96 | 1120.45 | 1109.9 | 1099.31 | – | – | – | – | –
[1], x1 = 0.7553 | 1130.91 | 1120.36 | 1109.75 | 1099.09 | 1088.41 | – | – | – | – | –
[1], x1 = 0.8748 | 1119.07 | 1108.4 | 1097.7 | 1086.93 | 1076.14 | – | – | – | – | –
[1], x1 = 1 | 1106.49 | 1095.71 | 1084.86 | 1073.96 | 1063.01 | – | – | – | – | –
[2], x1 = 0.1792 | – | – | – | – | – | 1.54704 | 1.54217 | 1.53739 | 1.53251 | 1.52761
[2], x1 = 0.2018 | – | – | – | – | – | 1.54638 | 1.5415 | 1.53671 | 1.53184 | 1.52695
[2], x1 = 0.2994 | – | – | – | – | – | 1.54356 | 1.53864 | 1.53383 | 1.52896 | 1.52412
[2], x1 = 0.3967 | – | – | – | – | – | 1.54078 | 1.53584 | 1.531 | 1.52612 | 1.52129
[2], x1 = 0.491 | – | – | – | – | – | 1.53813 | 1.53317 | 1.52829 | 1.52338 | 1.51851
[2], x1 = 0.5425 | – | – | – | – | – | 1.5367 | 1.53172 | 1.52682 | 1.52186 | 1.51697
[2], x1 = 0.6479 | – | – | – | – | – | 1.53381 | 1.52879 | 1.52381 | 1.51876 | 1.51377
[2], x1 = 0.7553 | – | – | – | – | – | 1.53092 | 1.52581 | 1.52072 | 1.51554 | 1.5104
[2], x1 = 0.8748 | – | – | – | – | – | 1.52777 | 1.52252 | 1.51723 | 1.51185 | 1.50652
[2], x1 = 1 | – | – | – | – | – | 1.52455 | 1.51902 | 1.51346 | 1.50781 | 1.50223
